Laboratory results: ChEMBL document CHEMBL5506044, “Ligandability Assessment of IL-1β by Integrated Hit Identification Approaches” (J Med Chem, 2024)
Bridge positions count the residues as written; N and C are the ends. Peptide text beside a SMILES is read from it.

Legend:
Interleukin-1 beta [1] = target: T1, Interleukin-1 beta (Homo sapiens, UniProt P01584)
Description: Antagonist activity at human recombinant His-tagged wild type IL-1 beta assessed as inhibition of IL-1 beta/Alexa 647 labeled human IL-1R1 (1 to 332) interaction preincubated with IL-1 beta for 1 hr followed by IL-1R1 addition and measured after 1 hr by TR-FRET assay

Interleukin-1 beta [2] = target: T1, Interleukin-1 beta; remark: listed apart in the source
Description: Antagonist activity at human IL-1 beta assessed as inhibition of interaction of IL-1 beta/IL-1R1 expressed in NHDF cells by measuring reduction in IL-6 production preincubated with IL-1 beta for 1 hr followed by incubation with cells and measured after 6 hrs by ELISA

Interleukin-1 beta [3] = target: T1, Interleukin-1 beta; remark: listed apart in the source
Description: Antagonist activity at human IL-1 beta assessed as inhibition of interaction of IL-1beta/IL-1R1 expressed in HEK293-Blue cells by measuring reduction in SEAP activity preincubated with IL-1 beta for 1 hr followed by incubation with cells and measured after overnight by reporter gene assay

Interleukin-1 beta [4] = target: T1, Interleukin-1 beta; remark: listed apart in the source
Interleukin-1 alpha = target: T2, Interleukin-1 alpha (Homo sapiens, UniProt P01583)
T2 sequence (P01583 whole entry): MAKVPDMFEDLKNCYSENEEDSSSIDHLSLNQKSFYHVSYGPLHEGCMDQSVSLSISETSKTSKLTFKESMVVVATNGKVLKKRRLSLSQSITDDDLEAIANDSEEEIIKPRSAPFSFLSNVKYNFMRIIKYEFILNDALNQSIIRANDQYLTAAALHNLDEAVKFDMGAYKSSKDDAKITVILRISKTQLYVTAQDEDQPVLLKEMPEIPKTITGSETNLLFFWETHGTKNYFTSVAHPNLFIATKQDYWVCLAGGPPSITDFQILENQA
Description: Antagonist activity at human recombinant His-tagged wild type IL-1 alpha assessed as inhibition of IL-1 alpha/Alexa 647 labeled human IL-1R1 (1 to 332) interaction preincubated with IL-1 alpha for 1 hr followed by IL-1R1 addition and measured after 1 hr by TR-FRET assay

T1 sequence (P01584 117-269 limits assumed): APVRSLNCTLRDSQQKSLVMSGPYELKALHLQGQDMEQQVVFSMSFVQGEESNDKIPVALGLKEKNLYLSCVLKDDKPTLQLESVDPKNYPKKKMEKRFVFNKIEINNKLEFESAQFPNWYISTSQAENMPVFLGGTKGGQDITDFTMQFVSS

Structure (SMILES) | IC50 (Interleukin-1 beta [1]) | Ki (Interleukin-1 beta [4]) | IC50 (Interleukin-1 alpha) | also measured
CC(C)c1cccc(-c2cc(C(=O)O)cn3cc(C(=O)N4CCN(S(=O)(=O)c5ccccc5)CCC4C(=O)NCCN4CCOCC4)nc23)c1 (configuration not stated) | > 200 µM | – | – | –
Cc1ccc2c(c1)NC(=O)[C@@]2(c1cn[nH]c1)c1cc(-c2ccc(C(=O)O)cc2C(=O)O)ccc1O | – | < 10 µM | – | IC50 (Interleukin-1 beta [2]): 7.9 µM; IC50 (Interleukin-1 beta [3]): 5.3 µM
CC(C)c1cc(-c2cc(C(=O)O)cn3cc(C(=O)N4CCCN(S(=O)(=O)c5ccccc5)CC4)nc23)ccc1C=O | > 200 µM | – | > 200 µM | –
Cc1cc(O)c(C(c2cc(C3CC(C(=O)O)C3)ccc2O)c2c[nH]nc2C(=O)O)cc1C (racemic) | – | 43 µM | – | –
OC(c1ccc(OC(F)F)cc1)(c1cccc(Br)c1)c1cc[nH]n1 (racemic) | – | > 1000 µM | – | –

Second part, led by results:

IC50 (Interleukin-1 beta [1]) | Ki (Interleukin-1 beta [4]) | IC50 (Interleukin-1 alpha) | Structure (SMILES) | also measured
78.4 µM | – | > 200 µM | CC(C)c1cc(-c2cc(C(=O)O)cn3cc(C(=O)N4CCN(S(=O)(=O)c5ccccc5)CC[C@@H]4C(=O)NCCN4CCOCC4)nc23)ccc1C=O | –
14 µM | – | > 200 µM | NCCCC[C@H](NC(=O)CNC(=O)[C@@H]1CSCC(=O)N[C@@H](Cc2ccccc2)C(=O)N[C@@H](Cc2c[nH]c3ccccc23)C(=O)N[C@@H](CC(=O)O)C(=O)N[C@@H](CO)C(=O)N[C@@H](Cc2c[nH]c3ccccc23)C(=O)NCC(=O)N[C@@H](Cc2ccc(O)cc2)C(=O)N[C@@H](Cc2c[nH]c3ccccc23)C(=O)N[C@@H](Cc2ccc(O)cc2)C(=O)NCC(=O)N2CCC[C@H]2C(=O)N[C@@H](Cc2c[nH]c3ccccc23)C(=O)N[C@@H](CC(=O)O)C(=O)N1)C(N)=O ({CH2CO}-FWDSWGYWYGPWDCGK-NH2; thioether N-14) | –
1.2 µM | – | > 200 µM | O=Cc1ccc(-c2cc(C(=O)O)cn3cc(C(=O)N4CCN(S(=O)(=O)c5ccccc5)CC[C@H]4C(=O)NCCN4CCOCC4)nc23)cc1C(F)(F)F | –
8.3 µM | – | 99 µM | CC(C)c1cc(-c2cc(C(=O)O)cn3cc(C(=O)N4CCN(S(=O)(=O)c5ccccc5)CC[C@H]4C(=O)NCCN4CCOCC4)nc23)ccc1C=O | –
11 µM | – | – | CC(C)c1cc(-c2cc(C(=O)O)cn3cc(C(=O)N4CCN(S(=O)(=O)c5ccccc5)CCC4C(=O)NCCN4CCOCC4)nc23)ccc1C=O (racemic) | –
